In article doi:10.1101/2025.04.23.650324v1 (biorxiv, 2025):
≈ marks a conversion by molar mass, not a printed value.

Key:
Assay in all cases: microbe, parasite or virus in culture
[1] = test system: Acinetobacter baumannii #14; settings: 18 h, read-out: ENOblock MIC (mg/L)
[2] = test system: Acinetobacter baumannii #21; settings: 18 h, read-out: ENOblock MIC (mg/L)
[3] = test system: Acinetobacter baumannii #10; settings: 18 h, read-out: ENOblock MIC (mg/L)
[4] = test system: Acinetobacter baumannii #20; settings: 18 h, read-out: ENOblock MIC (mg/L)
[5] = test system: Acinetobacter baumannii #19; settings: 18 h, read-out: ENOblock MIC (mg/L)
[6] = test system: Acinetobacter baumannii #1; settings: 18 h, read-out: ENOblock MIC (mg/L)
[7] = test system: Acinetobacter baumannii #22; settings: 18 h, read-out: ENOblock MIC (mg/L)
[8] = test system: Acinetobacter baumannii #17; settings: 18 h, read-out: ENOblock MIC (mg/L)
[9] = test system: Acinetobacter baumannii #11; settings: 18 h, read-out: ENOblock MIC (mg/L)
[10] = test system: Acinetobacter baumannii #16; settings: 18 h, read-out: ENOblock MIC (mg/L)
[11] = test system: Klebsiella pneumoniae Kp7; settings: KP7, 18 h, read-out: ENOblock MIC (mg/L)
[12] = test system: Klebsiella pneumoniae Kp15; settings: KP15, 18 h, read-out: ENOblock MIC (mg/L)
[13] = test system: Klebsiella pneumoniae Kp13; settings: KP13, 18 h, read-out: ENOblock MIC (mg/L)
[14] = test system: Klebsiella pneumoniae Kp8; settings: KP8, 18 h, read-out: ENOblock MIC (mg/L)
[15] = test system: Klebsiella pneumoniae Kp12; settings: KP12, 18 h, read-out: ENOblock MIC (mg/L)
[16] = test system: Klebsiella pneumoniae Kp11; settings: KP11, 18 h, read-out: ENOblock MIC (mg/L)
[17] = test system: Klebsiella pneumoniae Kp10; settings: KP10, 18 h, read-out: ENOblock MIC (mg/L)
[18] = test system: Klebsiella pneumoniae Kp6; settings: KP6, 18 h, read-out: ENOblock MIC (mg/L)
[19] = test system: Klebsiella pneumoniae Kp14; settings: KP14, 18 h, read-out: ENOblock MIC (mg/L)
[20] = test system: Klebsiella pneumoniae Kp9; settings: KP9, 18 h, read-out: ENOblock MIC (mg/L)
[21] = test system: Escherichia coli R6; settings: R6, 18 h, read-out: ENOblock MIC (mg/L)
[22] = test system: Escherichia coli CRA32; settings: CRA32, 18 h, read-out: ENOblock MIC (mg/L)
[23] = test system: Escherichia coli R2; settings: R2, 18 h, read-out: ENOblock MIC (mg/L)
[24] = test system: Escherichia coli CRA7; settings: CRA7, 18 h, read-out: ENOblock MIC (mg/L)
[25] = test system: Escherichia coli CRA5; settings: CRA5, 18 h, read-out: ENOblock MIC (mg/L)
[26] = test system: Escherichia coli CRA17; settings: CRA17, 18 h, read-out: ENOblock MIC (mg/L)
[27] = test system: Escherichia coli CRA57; settings: CRA57, 18 h, read-out: ENOblock MIC (mg/L)
[28] = test system: Escherichia coli CRA20; settings: CRA20, 18 h, read-out: ENOblock MIC (mg/L)
[29] = test system: Escherichia coli R5; settings: R5, 18 h, read-out: ENOblock MIC (mg/L)
[30] = test system: Escherichia coli CRA8; settings: CRA8, 18 h, read-out: ENOblock MIC (mg/L)

NCCOCCOCCNC(=O)Cc1ccc(Nc2nc(NCc3ccc(F)cc3)nc(NCC3CCCCC3)n2)cc1 [ENOblock]
MIC [1]: 16 mg/L (≈ 26.9 µM) | MIC [2]: 8 mg/L (≈ 13.5 µM) | MIC [3]: 16 mg/L (≈ 26.9 µM) | MIC [4]: 8 mg/L (≈ 13.5 µM) | MIC [5]: 32 mg/L (≈ 53.8 µM) | MIC [6]: 16 mg/L (≈ 26.9 µM) | MIC [7]: 16 mg/L (≈ 26.9 µM) | MIC [8]: 16 mg/L (≈ 26.9 µM) | MIC [9]: 16 mg/L (≈ 26.9 µM) | MIC [10]: 16 mg/L (≈ 26.9 µM) | MIC [11]: 16 mg/L (≈ 26.9 µM) | MIC [12]: 64 mg/L (≈ 108 µM) | MIC [13]: 64 mg/L (≈ 108 µM) | MIC [14]: 64 mg/L (≈ 108 µM) | MIC [15]: 64 mg/L (≈ 108 µM) | MIC [16]: 16 mg/L (≈ 26.9 µM) | MIC [17]: 32 mg/L (≈ 53.8 µM) | MIC [18]: 32 mg/L (≈ 53.8 µM) | MIC [19]: 64 mg/L (≈ 108 µM) | MIC [20]: 64 mg/L (≈ 108 µM) | MIC [21]: 16 mg/L (≈ 26.9 µM) | MIC [22]: 8 mg/L (≈ 13.5 µM) | MIC [23]: 32 mg/L (≈ 53.8 µM) | MIC [24]: 16 mg/L (≈ 26.9 µM) | MIC [25]: 16 mg/L (≈ 26.9 µM) | MIC [26]: 32 mg/L (≈ 53.8 µM) | MIC [27]: 16 mg/L (≈ 26.9 µM) | MIC [28]: 32 mg/L (≈ 53.8 µM) | MIC [29]: 32 mg/L (≈ 53.8 µM) | MIC [30]: 16 mg/L (≈ 26.9 µM)
